Measurements from patent US20250092064A1, “BENZOTRIAZOLE COMPOUND” (DAIICHI SANKYO COMPANY, LIMITED, priority 2022, published 2025).

Assays:
[1] = molecular target: binding between Nrf2 and Keap1 (Homo sapiens (Human), UniProt Q14145); assay: FP assay (in vitro): inhibition of Nrf2-Keap1 binding by fluorescence polarization; details: GST-fused human Keap1 (325-642) 20 nM, FITC-labeled Nrf2 peptide 10 nM, 2 hr at room temperature
[2] = tested on: NQO1 activity in Hepa1c1c7 cells; assay: NAD(P)H: quinone oxidoreductase-1 (NQO1) enzyme induction assay (in vitro); assay type: cell-based, mouse; details: Mus musculus, Hepa-1c1c7, NQO1 activity with 400 nM test compound as a ratio from the base without compound, about 48 hr
Outline: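 Mouse Hepa1c1c7 hepatoma cells treated 48 hr with 400 nM compound (final). NQO1 activity in lysates read by absorbance at 610 nm; value is background-subtracted activity ratio versus untreated cells.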

[3] = Measurement test of plasma drug concentration after oral administration in rats; assay type: in vivo; details: male SD rats, 10 mg/2 mL/kg in 0.5% methylcellulose
Experimental: 10 mg/2 mL/kg of the test compound suspended in 0.5% methylcellulose solution were force-fed to Male SD rats (7 weeks old, Japan SLC). Blood was collected from the jugular vein using a syringe with heparin at 0.5, 1, 2, 4, 6, and 24 hr after administration. After blood collection, to 20 μL of centrifuged plasma was added an equal volume of acetonitrile followed by 200 μL of internal standard (IS) solution. After agitation, all the supernatant after centrifugation was filtered, and the collected filtrate was used as the assay sample. Equal volumes of the test compound solution prepared in acetonitrile were added to blank plasma, and the samples processed in the same manner as above were used as samples for the calibration curve. The prepared samples were measured using LC/MS/MS, and the area under the blood concentration-time curve (AUC) was calculated from the compound concentration in plasma.

binding between Nrf2 and Keap1, sequence (Q14145 325-624 limits assumed): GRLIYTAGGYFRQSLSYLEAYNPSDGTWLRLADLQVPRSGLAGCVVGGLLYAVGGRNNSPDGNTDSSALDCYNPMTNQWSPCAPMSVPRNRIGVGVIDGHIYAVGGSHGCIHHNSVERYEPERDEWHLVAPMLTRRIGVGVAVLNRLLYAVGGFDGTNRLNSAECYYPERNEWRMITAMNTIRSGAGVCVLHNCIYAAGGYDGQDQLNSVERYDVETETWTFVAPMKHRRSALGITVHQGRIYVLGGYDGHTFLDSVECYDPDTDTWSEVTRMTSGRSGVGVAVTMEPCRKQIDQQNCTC

Row | IC50 [1] [nM] | maximam plasma concentration [3] [µM] | AUC(0-t) ([3]; rat, plasma, 10 mg/kg, read-out: AUC0-24) [µM·h] | Structure (SMILES) | fold induction at 0.4 µM [2]
1 | ≤ 10 | 0.009 | 0.03 | CC[C@@H]1CN(Cc2cc([C@H](CC(=O)O)c3ccc4c(nnn4C)c3C)cc3ccsc23)S(=O)(=O)c2cc(Cl)cnc2O1 [Example 7, (3S)-3-(7-{[(4R)-8-Chloro-4-ethyl-1,1-dioxido-3,4-dihydro-2H-pyrido[2,3-b][1,4,5]oxathiazepin-2-yl]methyl}-1-benzothiophen-5-yl)-3-(1,4-dimethyl-1H-benzotriazol-5-yl)propanoic acid] | > 5
2 | ≤ 10 |  |  | C[C@@H]1CN(Cc2cc(C(CC(=O)O)c3ccc4c(nnn4C)c3Cl)cc3c2CCC3)S(=O)(=O)c2ccccc2O1 (stereo partly drawn) [Example 95, 3-(4-Chloro-1-methyl-1H-benzotriazol-5-yl)-3-(7-{[(4R)-4-methyl-1,1-dioxido-3,4-dihydro-2H-5,1,2-benzoxathiazepin-2-yl]methyl}-2,3-dihydro-1H-inden-5-yl)propanoic acid] | > 5
3 | ≤ 10 |  |  | CC[C@@H]1CN(Cc2cc([C@@H](CC(=O)O)c3ccc4c(nnn4C)c3C)cc3c2CCC3)S(=O)(=O)c2cccc(Cl)c2O1 [Example 48, (3R)-3-(7-{[(4R)-6-Chloro-4-ethyl-1,1-dioxido-3,4-dihydro-2H-5,1,2-benzoxathiazepin-2-yl]methyl}-2,3-dihydro-1H-inden-5-yl)-3-(1,4-dimethyl-1H-benzotriazol-5-yl)propanoic acid] | > 5
4 | 10 to 30 |  |  | CC[C@@H]1CN(Cc2cc(C(CC(=O)O)c3cc(C(F)(F)F)c4c(nnn4C)c3C)cc3ccsc23)S(=O)(=O)c2cc(Cl)cnc2O1 (stereo partly drawn) [Example 53, 3-(7-{[(4R)-8-Chloro-4-ethyl-1,1-dioxido-3,4-dihydro-2H-pyrido[2,3-b][1,4,5]oxathiazepin-2-yl]methyl}-1-benzothiophen-5-yl)-3-[1,4-dimethyl-7-(trifluoromethyl)-1H-benzotriazol-5-yl]propanoic acid] | > 5
5 | ≤ 10 |  |  | CC[C@@H]1CN(Cc2cc([C@H](CC(=O)O)c3ccc4c(nnn4C)c3C)cc3ccsc23)S(=O)(=O)c2cc(Cl)c(F)cc2O1 [Example 23, (3S)-3-(7-{[(4R)-8-Chloro-4-ethyl-7-fluoro-1,1-dioxido-3,4-dihydro-2H-5,1,2-benzoxathiazepin-2-yl]methyl}-1-benzothiophen-5-yl)-3-(1,4-dimethyl-1H-benzotriazol-5-yl)propanoic acid] | > 5
6 | 10 to 30 |  |  | CC[C@@H]1CN(Cc2cc(C(CC(=O)O)c3ccc4c(nnn4C)c3Cl)cc3ccsc23)S(=O)(=O)c2cc(Cl)cnc2O1 (stereo partly drawn) [Example 2, 3-(7-{[(4R)-8-Chloro-4-ethyl-1,1-dioxido-3,4-dihydro-2H-pyrido[2,3-b][1,4,5]oxathiazepin-2-yl]methyl}-1-benzothiophen-5-yl)-3-(4-chloro-1-methyl-1H-benzotriazol-5-yl)propanoic acid] | > 5
7 | ≤ 10 |  |  | CC[C@@H]1CN(Cc2cc([C@@H](CC(=O)O)c3cc(C4CC4)c4c(nnn4C)c3C)cc3ccsc23)S(=O)(=O)c2cc(Cl)cnc2O1 [Example 37, (3R)-3-(7-{[(4R)-8-Chloro-4-ethyl-1,1-dioxido-3,4-dihydro-2H-pyrido[2,3-b][1,4,5]oxathiazepin-2-yl]methyl}-1-benzothiophen-5-yl)-3-(7-cyclopropyl-1,4-dimethyl-1H-benzotriazol-5-yl)propanoic acid] | 3 to 5
8 | 30 to 100 |  |  | CC[C@@H]1CN(Cc2cc(C(CC(=O)O)c3ccc4c(nnn4C)c3C)cc3ccsc23)S(=O)(=O)c2cc(Cl)cnc2O1 (stereo partly drawn) [Example 1, 3-(7-{[(4R)-8-Chloro-4-ethyl-1,1-dioxido-3,4-dihydro-2H-pyrido[2,3-b][1,4,5]oxathiazepin-2-yl]methyl}-1-benzothiophen-5-yl)-3-(1,4-dimethyl-1H-benzotriazol-5-yl)propanoic acid] | > 5
9 | ≤ 10 |  |  | Cc1c([C@@H](CC(=O)O)c2cc3c(c(CN4CC5(CC5)Oc5ncc(Cl)cc5S4(=O)=O)c2)CCC3)ccc2c1nnn2C [Example 43, (3S)-3-{7-[(8′-Chloro-1′,1′-dioxido-spiro[cyclopropane-1,4′-pyrido[2,3-b][1,4,5]oxathiazepine]-2′(3′H)-yl)methyl]-2,3-dihydro-1H-inden-5-yl}-3-(1,4-dimethyl-1H-benzotriazol-5-yl)propanoic acid] | > 5
10 | 10 to 30 |  |  | CC[C@@H]1CN(Cc2cc(C(CC(=O)O)c3cc(C#N)c4c(nnn4C)c3C)cc3ccsc23)S(=O)(=O)c2cc(Cl)cnc2O1 (stereo partly drawn) [Example 52, 3-(7-{[(4R)-8-Chloro-4-ethyl-1,1-dioxido-3,4-dihydro-2H-pyrido[2,3-b][1,4,5]oxathiazepin-2-yl]methyl}-1-benzothiophen-5-yl)-3-(7-cyano-1,4-dimethyl-1H-benzotriazol-5-yl)propanoic acid] | > 5
11 | 10 to 30 |  |  | Cc1c([C@H](CC(=O)O)c2cc(CN3C[C@@H](C)Oc4ccc(O)nc4[C@@H]3C)c3sccc3c2)ccc2c1nnn2C [Example 82, (3R)-3-(1,4-Dimethyl-1H-benzotriazol-5-yl)-3-(7-{[(2R,5S)-7-hydroxy-2,5-dimethyl-2,3-dihydropyrido[2,3-f][1,4]oxazepin-4(5H)-yl]methyl}-1-benzothiophen-5-yl)propanoic acid] | > 5
12 | ≤ 10 |  |  | CC[C@@H]1CN(Cc2cc([C@@H](CC(=O)O)c3cc(C)c4c(nnn4C)c3C)cc3c2CCC3)S(=O)(=O)c2cc(Cl)cnc2O1 [Example 44, (3R)-3-(7-{[(4R)-8-Chloro-4-ethyl-1,1-dioxido-3,4-dihydro-2H-pyrido[2,3-b][1,4,5]oxathiazepin-2-yl]methyl}-2,3-dihydro-1H-inden-5-yl)-3-(1,4,7-trimethyl-1H-benzotriazol-5-yl)propanoic acid] | 3 to 5
13 | ≤ 10 |  |  | CC[C@@H]1CN(Cc2cc(C(CC(=O)O)c3cc(Cl)c4c(nnn4C)c3C)cc3c2CCC3)[C@@H](C)c2ncccc2O1 (single isomer, unassigned) [Example 71, (3R*)-3-(7-Chloro-1,4-dimethyl-1H-benzotriazol-5-yl)-3-(7-{[(2R,5S)-2-ethyl-5-methyl-2,3-dihydropyrido[2,3-f][1,4]oxazepin-4(5H)-yl]methyl}-2,3-dihydro-1H-inden-5-yl)propanoic acid] | > 5
14 | ≤ 10 |  |  | CC[C@@H]1CN(Cc2cc([C@@H](c3ccc4c(nnn4C)c3C)C(C)(C)C(=O)O)cc3c2CCC3)[C@@H](C)c2ncccc2O1 [Example 89, (3S)-3-(1,4-Dimethyl-1H-benzotriazol-5-yl)-3-(7-{[(2R,5S)-2-ethyl-5-methyl-2,3-dihydropyrido[2,3-f][1,4]oxazepin-4(5H)-yl]methyl}-2,3-dihydro-1H-inden-5-yl)-2,2-dimethylpropanoic acid] | > 5
15 | 10 to 30 |  |  | CCOc1ccc2c(n1)O[C@H](CC)CN(Cc1cc(C(CC(=O)O)c3ccc4c(nnn4C)c3C)cc3c1CCC3)S2(=O)=O (stereo partly drawn) [Example 9, 3-(1,4-Dimethyl-1H-benzotriazol-5-yl)-3-(7-{[(4R)-7-ethoxy-4-ethyl-1,1-dioxido-3,4-dihydro-2H-pyrido[2,3-b][1,4,5]oxathiazepin-2-yl]methyl}-2,3-dihydro-1H-inden-5-yl)propanoic acid] | > 5
16 | 10 to 30 |  |  | CC[C@@H]1CN(Cc2cc(C(CC(=O)O)c3ccc4c(nnn4C)c3C)cc3ccsc23)[C@@H](C)c2ncccc2O1 (stereo partly drawn) [Example 61, 3-(1,4-Dimethyl-1H-benzotriazol-5-yl)-3-(7-{[(2R,5S)-2-ethyl-5-methyl-2,3-dihydropyrido[2,3-f][1,4]oxazepin-4(5H)-yl]methyl}-1-benzothiophen-5-yl)propanoic acid] | > 5
17 | 10 to 30 |  |  | CC[C@@H]1CN(Cc2cc([C@@H](CC(=O)O)c3ccc4c(nnn4C)c3C)cc3c2CCC3)S(=O)(=O)c2cc(Cl)c(F)cc2O1 [Example 20, (3R)-3-(7-{[(4R)-8-Chloro-4-ethyl-7-fluoro-1,1-dioxido-3,4-dihydro-2H-5,1,2-benzoxathiazepin-2-yl]methyl}-2,3-dihydro-1H-inden-5-yl)-3-(1,4-dimethyl-1H-benzotriazol-5-yl)propanoic acid] | > 5
18 | 10 to 30 |  |  | CC[C@@H]1CN(Cc2cc(C(CC(=O)O)c3cc(Cl)c4c(nnn4C)c3C)cc3ccsc23)S(=O)(=O)c2cc(Cl)cnc2O1 (stereo partly drawn) [Example 51, 3-(7-Chloro-1,4-dimethyl-1H-benzotriazol-5-yl)-3-(7-{[(4R)-8-chloro-4-ethyl-1,1-dioxido-3,4-dihydro-2H-pyrido[2,3-b][1,4,5]oxathiazepin-2-yl]methyl}-1-benzothiophen-5-yl)propanoic acid] | 3 to 5
